Source: PMC6337650 (Molecules, 2018)

Legend:
HepG2 cells = assay: MTT antiproliferative assay, HepG2; format: cell-based, human; conditions: Homo sapiens, HepG2, 48 h, MTT, mean ± SD, n=3; for inhibition at 100 µM: read-out: % Growth Inhibition at 100 μM HepG2
Procedure: (§1) The antiproliferative activity of the target compounds against a normal L02 cell line and the three different human cancer cell lines viz. colorectal (HCT-116), liver (BEL-7402) and liver (HepG2) were evaluated using a standard MTT-based colorimetric assay. All cell lines were obtained from the Key Laboratory of Natural Resources and Functional Molecules of the Changbai Mountain (Yanbian University, Jilin, China) and maintained in Dulbecco’s modified Eagle’s medium (DMEM) and RPMI Media 1640 (RPMI1640), supplemented with 10% fetal bovine serum (FBS) at 37 °C in a humidified atmosphere containing 5% CO2.
(§2) Cells were plated in 96-well plates at appropriate densities to ensure exponential growth throughout the experimental period (9 × 10^3 cells per well) and then allowed to adhere for 24 h. Cells were then treated for 48 h with four serial concentrations (1, 10, 50 and 100 µM) of each compound. 5-fluorouracil (5-FU) was used as a positive control. After 48 h of incubation, 10 µL of MTT solution was added to each well to a final concentration of 2 mg/mL. Plates were then incubated for a further 4 h. After incubation, the MTT solution was removed and 150 µL of DMSO was added to each well for coloration. The plates were shaken vigorously for 10 min at room temperature to ensure complete solubilization. The optical density (OD) was read on a microplate reader (ELx800, BioTek, Highland Park, Winooski, VT, USA) at a wavelength of 492 nm and the data were subsequently analyzed. The percentage of cell growth inhibition was calculated from the following equation: Inhibitory rate (%) = [(1 − (ODtreated-ODblank)/(ODcontrol-ODblank)] × 100.(1)

L02 cells = assay: MTT assay on normal liver cells L02; format: cell-based; conditions: Homo sapiens, normal liver cells, 48 h, MTT, Table 2, read-out: IC50 Values (μM) L02
Procedure: as §1
as §2, with “5-fluorouracil (5-FU) was used as a positive control.” left out

HCT-116 cells = assay: MTT antiproliferative assay, HCT-116; format: cell-based, human; conditions: Homo sapiens, HCT-116, 48 h, MTT, mean ± SD, n=3; for inhibition at 100 µM: read-out: % Growth Inhibition at 100 μM HCT-116
Procedure: as §1, §2

BEL-7402 cells = assay: MTT antiproliferative assay, BEL-7402; format: cell-based, human; conditions: Homo sapiens, Bel-7402, 48 h, MTT, mean ± SD, n=3; for inhibition at 100 µM: read-out: % Growth Inhibition at 100 μM BEL-7402
Procedure: as §1, §2

HeLa cells = conditions: read-out: IC50 against HeLa cells; cited from earlier work
HT29 cells = conditions: cell line printed as HT24 in b5; read-out: IC50 against HT24 cell line; cited from earlier work
AGS cells = conditions: read-out: IC50 against AGS cells; cited from earlier work
T24 cells = conditions: Figure 2; read-out: IC50 against T24 cells; cited from earlier work
HL-60 cells = tested on: HL-60 cells; set-up: method as in PMID 26653151, PMID 25405286; conditions: Figure 2; read-out: IC50 against HL-60 cells; cited from earlier work

Row | Compound | melting point [°C] | inhibition at 100 µM (HepG2 cells) [%] | IC50 (HepG2 cells) [µM] | IC50 (L02 cells) [µM] | inhibition at 100 µM (HCT-116 cells) [%] | IC50 (HCT-116 cells) [µM] | inhibition at 100 µM (BEL-7402 cells) [%] | IC50 (BEL-7402 cells) [µM] | also measured
1 | COc1ccc(-n2cc(CNC(=O)COC(=O)[C@]3(C)CCC[C@@]4(C)[C@@H]5CC[C@@]6(C)C[C@]5(CC[C@@H]43)CC6=O)nn2)cc1 [Compound 5c, 2-(((1-(4-methoxyphenyl)-1H-1,2,3-triazol-4-yl)methyl)amino)-2-oxoethyl(4R,4aS,6aR,9S,11aR,11bS)-4,9,11b-trimethyl-8-oxotetradecahydro-6a,9-methanocyclohepta[a]naphthalene-4-carboxylate] | 71 to 72 | 82.8 ± 2.02 | 12.3 ± 0.77 | > 100 | 84.6 ± 1.55 | 14.4 ± 1.31 | 75.6 ± 1.76 | > 100 | 
2 | C[C@@]12CC[C@@H]3[C@@](CC[C@H]4[C@@]3(C)CCC[C@@]4(C)C(=O)OCC(=O)NCc3cn(-c4ccc(Cl)c(Cl)c4)nn3)(CC1=O)C2 [Compound 5e, 2-(((1-(3,4-dichlorophenyl)-1H-1,2,3-triazol-4-yl)methyl)amino)-2-oxoethyl(4R,4aS,6aR,9S,11aR,11bS)-4,9,11b-trimethyl-8-oxotetradecahydro-6a,9-methanocyclohepta[a]naphthalene-4-carboxylate] | 96 to 97 | 66.1 ± 0.97 | 12.82 ± 0.09 | > 100 | 71.14 ± 0.65 | 14.3 ± 0.15 | 68 ± 1.17 | > 100 | 
3 | CCOP(=O)(OCC)C(NC(=O)COC(=O)[C@]1(C)CCC[C@@]2(C)[C@@H]3CC[C@@]4(C)C[C@]3(CC[C@@H]21)CC4=O)c1ccc(OC)cc1 (stereo partly drawn) [Compound 6c, 2-(((diethoxyphosphoryl)(4-methoxyphenyl)methyl)amino)-2-oxoethyl(4R,4aS,6aR,9S,11aR,11bS)-4,9,11b-trimethyl-8-oxotetradecahydro-6a,9-methanocyclohepta[a]naphthalene-4-carboxylate] | 134 to 135 | 41.4 ± 1.86 | > 100 | > 100 | 74.1 ± 2.45 | 15.15 ± 0.11 | 50.9 ± 2.68 | 92.6 ± 1.96 | 
4 | CCOP(=O)(OCC)C(NC(=O)COC(=O)[C@]1(C)CCC[C@@]2(C)[C@@H]3CC[C@@]4(C)C[C@]3(CC[C@@H]21)CC4=O)c1ccc(C)cc1 (stereo partly drawn) [Compound 6d, 2-(((diethoxyphosphoryl)(p-tolyl)methyl)amino)-2-oxoethyl(4R,4aS,6aR,9S,11aR,11bS)-4,9,11b-trimethyl-8-oxotetradecahydro-6a,9-methanocyclohepta[a]naphthalene-4-carboxylate] | 119 to 120 | 80.64 ± 0.76 | 13.2 ± 0.86 | > 100 | 76.6 ± 2.33 | 18.7 ± 0.17 | 51.5 ± 0.68 | 60.9 ± 1.37 | 
5 | CC(=O)O[C@H]1CC[C@@]2(C)C(CC[C@]3(C)C2CC=C2C4[C@@H](C)[C@H](C)CC[C@]4(C(=O)Nc4ccccc4)CC[C@]23C)C1(C)C (stereo partly shown) [Compound A] |  |  |  |  |  |  |  |  | IC50 (HeLa cells): 1.63 µM
6 | CC(=O)O[C@H]1CC[C@@]2(C)C(CC[C@]3(C)C2CC=C2C4CC(C)(C)CC[C@]4(C(=O)NCCN4CCCC4)CC[C@]23C)C1(C)C (stereo partly shown) [Compound B] |  |  |  |  |  |  |  |  | IC50 (HT29 cells): 1.3 µM
7 | COC(=O)C(Cc1c[nH]c2ccccc12)NC(=O)[C@]1(C)CC[C@]2(C)CC[C@]3(C)C4=CC=C5C(=CC(=O)C(O)=C5C)[C@]4(C)CC[C@@]3(C)C2C1 (stereo partly shown) [Compound C] |  |  |  |  |  |  |  |  | IC50 (AGS cells): 0.44 µM
8 | CCOP(=O)(OCC)C(NC(=O)[C@]12CC[C@@H](C)[C@H](C)[C@H]1C1=CC[C@@H]3[C@@]4(C)C[C@@H](OC(C)=O)[C@H](OC(C)=O)[C@@](C)(COC(C)=O)[C@@H]4CC[C@@]3(C)[C@]1(C)CC2)c1ccccc1Cl (stereo partly shown) [Compound D] |  |  |  |  |  |  |  |  | IC50 (T24 cells): 6.59 µM
9 | COC(=O)[C@]1(C)CCC[C@@]2(C)[C@@H]3CC[C@@]4(C)C[C@@]3(C=C4c3cn(CCCc4ccccc4)nn3)CC[C@@H]21 [Compound E] |  |  |  |  |  |  |  |  | IC50 (HL-60 cells): 25.6 µM
